Literature values as cited in patent US20160296499A1, “Spiroindoline Antiparasitic Derivatives” (ZOETIS SERVICES LLC, priority 2013, published 2016).

Key:
[1] = target: T1, vertebrate VAChT (Homo sapiens, UniProt Q16572); settings: Khare et. al.; cited from earlier work
T1 sequence (Q16572 1-532): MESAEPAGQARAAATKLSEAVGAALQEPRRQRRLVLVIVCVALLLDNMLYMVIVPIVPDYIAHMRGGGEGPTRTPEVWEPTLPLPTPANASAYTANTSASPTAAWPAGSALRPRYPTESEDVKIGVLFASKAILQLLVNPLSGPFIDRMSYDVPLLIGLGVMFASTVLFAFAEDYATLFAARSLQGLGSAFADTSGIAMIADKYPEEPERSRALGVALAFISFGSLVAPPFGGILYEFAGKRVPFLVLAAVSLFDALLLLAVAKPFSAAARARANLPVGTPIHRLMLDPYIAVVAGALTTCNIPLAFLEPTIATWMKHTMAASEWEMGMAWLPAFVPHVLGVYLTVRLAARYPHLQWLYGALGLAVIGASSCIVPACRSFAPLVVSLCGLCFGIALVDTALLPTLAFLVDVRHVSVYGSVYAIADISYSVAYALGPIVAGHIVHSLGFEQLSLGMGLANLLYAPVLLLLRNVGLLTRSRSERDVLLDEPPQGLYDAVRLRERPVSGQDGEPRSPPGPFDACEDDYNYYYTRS

[2] = test system: mammals; settings: Brittain et. al.; cited from earlier work

## OC1CCCCC1N1CCC(c2ccccc2)CC1 (centres unmarked) [Vesamicol, 2-(4-phenyl-piperidino)-cyclohexanol]
[1]
  binding affinity to vertebrate VAChT: high affinity
[2]
  toxicity to mammals: highly toxic
